Article PMC8143339, “PK/PD Modeling of the PDE7 Inhibitor—GRMS-55 in a Mouse Model of Autoimmune Hepatitis” (Pharmaceutics, 2021)
pIC50: −log10 of the molar value.

Experiments:
ConA-induced hepatitis = test: Preliminary pharmacological evaluation in ConA-induced hepatitis; format: in vivo, BALB/c mice
Experimental: ConA was dissolved in sterile saline (2 mg·mL^−1). The studied compounds (GRMS-55, rolipram, and BRL-50481) were dissolved in a mixture of DMSO, PEG 400, and water for injection at a ratio of 25:25:50 (v/v/v). Mice were given an IP injection of the investigated compounds or the corresponding volume of vehicle alone and, thirty minutes later, intravenously (IV) administered with ConA solution. An additional control group received vehicle alone IP instead of the studied compounds followed by IV injection of sterile saline. ConA was given at a dose of 20 mg·kg^−1. Mice were exsanguinated at several time points post-ConA injection. Blood samples were allowed to clot for 0.5 h at room temperature and then centrifuged at 3000× g for 10 min to obtain the serum, which was stored at −20 °C until further analysis.
The influence of PDE inhibitors on the levels of inflammatory mediators and transaminases in ConA-treated mice was investigated in two separate experiments. In the preliminary study, the animals were pretreated IP with GRMS-55 at a dose of 50 mg·kg^−1, the PDE4-selective inhibitor rolipram at a dose of 10 mg·kg^−1, or the PDE7-selective inhibitor BRL-50481 at a dose of 50 mg·kg^−1. Doses of the investigated compounds were chosen based on the results of previous studies. Subsequently, mice were given an IV injection of ConA and sacrificed at 8 h following mitogen dosing. The levels of TNF-α, IL-6, and IFN-γ and the activities of ALT and AST in the mouse serum were measured. This preliminary experiment allowed comparing the activity of the studied PDE inhibitors in this AIH model and helped to select the doses of GRMS-55 for a subsequent pharmacodynamic study. In the final pharmacodynamic experiment, GRMS-55 was administered at two dose levels (50 and 100 mg·kg^−1) followed by ConA administration at a dose of 20 mg·kg^−1. Animals were sacrificed at various time points post-ConA dosing (1, 2, 4, 8 and 24 h). The levels of TNF-α, IL-1β, IL-4, IL-6, IL-10, IL-12, IL-17A, and IFN-γ were measured using a multiplex Luminex assay. In addition, the activities of ALT and AST in the mouse serum were assessed. The concentration–time profiles of the selected biomarkers obtained in this experiment combined with the results of pharmacokinetic analysis allowed the development of a semi-mechanistic PK/PD/disease progression model and the investigation of concentration–effect relationships of GRMS-55.
The serum samples from the preliminary pharmacological study were analyzed using ELISA tests according to the protocols provided by the manufacturers. The TNF-α concentrations were measured using the Mouse TNF-α Quantikine ELISA Kit (R&D Systems, Minneapolis, MN, USA), while the concentrations of IL-6 and IFN-gamma were quantified by ELISA kits manufactured by Cloud-Clone Corp. (Houston, TX, USA). The absorbance of samples was measured on a POLARstar Omega multi-mode microplate reader (BMG LABTECH, Ortenberg, Germany) set at 450 nm wavelength. TNF-α, IL-1β, IL-6, IL-4, IL-10, IL-12, IL-17A, and IFN-γ serum levels in samples from pharmacodynamic experiment were determined by a premixed Magnetic Luminex Assay (R&D Systems, Inc., Minneapolis, MN, USA) according to the manufacturer’s protocol. Serum AST and ALT activities were quantified on a chemistry analyzer BS-800 (Shenzhen Mindray Bio-medical Electronics Co., Ltd., Shenzhen, China).

PDE4B = details: in vitro assay; read-out: IC50 PDE4B; cited from earlier work
PDE7A = details: in vitro assay; read-out: IC50 PDE7A; cited from earlier work
[1] = tested on: paw edema in collagen-induced arthritis; set-up: method as in PMID 31899535; details: rats with collagen-induced arthritis, PK/PD arthritis progression model; cited from earlier work
TNF-α production = tested on: TNF-α production; set-up: method as in PMID 31899535; details: rat lipopolysaccharide-induced endotoxemia, PK/PD model; cited from earlier work
[2] = 8 h after ConA 20 mg/kg IV, IP pretreatment: rolipram 10, BRL-50481 50, GRMS-55 50 mg/kg, vs vehicle control

SMILES | effect on activities of transaminases (ConA-induced hepatitis; 50 mg/kg IP, 8 h after ConA) | effect on serum IFN-γ concentration (ConA-induced hepatitis; [2]) | effect on serum IL-6 concentration (ConA-induced hepatitis; [2]) | effect on serum TNF-α concentration (ConA-induced hepatitis; [2]) | pIC50 (PDE4B) | pIC50 (PDE7A) | decrease of IFN-γ level compared to control group (ConA-induced hepatitis; 10 mg/kg IP, 8 h after ConA) | decrease of IL-6 level compared to control group (ConA-induced hepatitis; 10 mg/kg IP, 8 h after ConA) | reduction of ALT activity compared to vehicle-treated control group (ConA-induced hepatitis; 10 mg/kg IP, 8 h after ConA) | reduction of AST activity compared to vehicle-treated control group (ConA-induced hepatitis; 10 mg/kg IP, 8 h after ConA) | IC50, decrease of paw edema [1] | IC50, suppression of TNF-α production (TNF-α production)
Cc1ccc([N+](=O)[O-])cc1S(=O)(=O)N(C)C [BRL-50481] | reduced | decreased | no effect | decreased | < 3.70 | 5.68 |  |  |  |  |  | 
COc1ccc(C2CNC(=O)C2)cc1OC1CCCC1 (stereo not shown) [Rolipram] |  |  |  |  |  | < 3.70 | approximately 5.0 times | ~3.8 times | approximately 18.2 times | ~6.1 times | 0.01 µg/mL | 0.36 µg/mL
